# Measurements taken from ChEMBL document CHEMBL3431459, “Roche carnitine palmitoyltransferase modulator screening data (supplementary data associated with the publication CHEMBL2216752)”.
# Assays:
# [1] = molecular target: T1, Carnitine O-palmitoyltransferase 1, muscle isoform (Homo sapiens, UniProt Q92523); experiment: SUPPLEMENTARY: Inhibition of Carnitine palmitoyltransferase 1, muscle isoform; set-up: species or system Muscle tissue
# T1 sequence (Q92523 whole entry): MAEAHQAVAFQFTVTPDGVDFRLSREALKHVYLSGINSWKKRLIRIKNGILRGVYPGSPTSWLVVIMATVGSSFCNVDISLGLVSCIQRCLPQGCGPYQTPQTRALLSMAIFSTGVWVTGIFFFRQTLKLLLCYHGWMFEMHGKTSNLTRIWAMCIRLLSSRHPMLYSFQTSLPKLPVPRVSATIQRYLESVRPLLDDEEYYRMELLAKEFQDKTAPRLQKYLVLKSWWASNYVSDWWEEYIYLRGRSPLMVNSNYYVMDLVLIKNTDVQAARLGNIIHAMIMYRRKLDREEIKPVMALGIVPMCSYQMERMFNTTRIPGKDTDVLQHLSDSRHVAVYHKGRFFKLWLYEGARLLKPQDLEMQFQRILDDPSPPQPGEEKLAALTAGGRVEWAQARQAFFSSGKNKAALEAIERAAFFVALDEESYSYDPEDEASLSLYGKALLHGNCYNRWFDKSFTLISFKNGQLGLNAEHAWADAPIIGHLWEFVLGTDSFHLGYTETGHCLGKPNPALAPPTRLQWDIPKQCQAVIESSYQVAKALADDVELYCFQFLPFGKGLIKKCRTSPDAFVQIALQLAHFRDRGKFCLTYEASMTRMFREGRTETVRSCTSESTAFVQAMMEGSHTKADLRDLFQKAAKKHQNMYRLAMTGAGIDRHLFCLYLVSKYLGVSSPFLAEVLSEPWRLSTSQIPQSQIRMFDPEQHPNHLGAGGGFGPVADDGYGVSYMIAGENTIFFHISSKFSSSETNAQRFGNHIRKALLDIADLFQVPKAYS
# [2] = molecular target: T2, Carnitine O-palmitoyltransferase 2, mitochondrial (Homo sapiens, UniProt P23786); experiment: (§1) SUPPLEMENTARY: Inhibition of Carnitine palmitoyltransferase 2
# T2 sequence (P23786 whole entry): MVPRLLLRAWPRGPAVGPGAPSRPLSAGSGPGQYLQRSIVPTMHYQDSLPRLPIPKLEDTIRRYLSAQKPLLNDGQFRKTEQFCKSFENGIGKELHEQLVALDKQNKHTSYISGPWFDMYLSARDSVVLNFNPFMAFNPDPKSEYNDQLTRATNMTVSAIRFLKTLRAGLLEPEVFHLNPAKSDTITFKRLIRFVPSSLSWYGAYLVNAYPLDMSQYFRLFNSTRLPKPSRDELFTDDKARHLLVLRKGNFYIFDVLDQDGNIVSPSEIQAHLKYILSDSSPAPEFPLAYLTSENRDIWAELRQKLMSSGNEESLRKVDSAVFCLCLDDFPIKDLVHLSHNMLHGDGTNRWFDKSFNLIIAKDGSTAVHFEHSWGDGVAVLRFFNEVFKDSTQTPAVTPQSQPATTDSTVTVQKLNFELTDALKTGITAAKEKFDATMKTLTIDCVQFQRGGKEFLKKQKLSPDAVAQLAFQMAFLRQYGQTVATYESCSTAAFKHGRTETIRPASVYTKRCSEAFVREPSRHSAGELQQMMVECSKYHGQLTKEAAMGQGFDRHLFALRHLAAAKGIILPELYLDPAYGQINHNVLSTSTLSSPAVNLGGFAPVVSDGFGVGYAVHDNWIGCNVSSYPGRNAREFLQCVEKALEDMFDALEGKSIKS
# [3] = molecular target: T3, Carnitine O-palmitoyltransferase 2, mitochondrial (Rattus norvegicus, UniProt P18886); experiment: as §1
# T3 sequence (P18886 whole entry): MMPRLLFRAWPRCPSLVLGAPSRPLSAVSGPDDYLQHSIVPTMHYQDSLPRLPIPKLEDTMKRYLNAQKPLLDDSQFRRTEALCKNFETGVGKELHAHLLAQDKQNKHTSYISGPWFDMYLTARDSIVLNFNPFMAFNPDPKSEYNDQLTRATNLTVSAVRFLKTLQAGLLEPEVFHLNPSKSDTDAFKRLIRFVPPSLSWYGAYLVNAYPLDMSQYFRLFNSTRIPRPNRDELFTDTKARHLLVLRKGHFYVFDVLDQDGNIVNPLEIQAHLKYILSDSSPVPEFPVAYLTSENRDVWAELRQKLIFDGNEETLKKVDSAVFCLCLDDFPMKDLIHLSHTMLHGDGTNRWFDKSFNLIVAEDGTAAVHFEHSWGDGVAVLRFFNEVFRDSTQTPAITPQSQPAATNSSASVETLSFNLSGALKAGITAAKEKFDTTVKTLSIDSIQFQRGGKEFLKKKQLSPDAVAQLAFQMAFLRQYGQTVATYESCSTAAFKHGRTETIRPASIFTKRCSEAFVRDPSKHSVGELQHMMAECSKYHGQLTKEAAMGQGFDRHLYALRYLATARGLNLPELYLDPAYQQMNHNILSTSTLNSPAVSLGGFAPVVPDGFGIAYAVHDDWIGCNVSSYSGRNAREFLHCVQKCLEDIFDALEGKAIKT
# [4] = molecular target: T4, Carnitine O-palmitoyltransferase 1, liver isoform (Homo sapiens, UniProt P50416); experiment: (§2) SUPPLEMENTARY: Inhibition of Carnitine palmitoyltransferase 1, liver isoform
# T4 sequence (P50416 whole entry): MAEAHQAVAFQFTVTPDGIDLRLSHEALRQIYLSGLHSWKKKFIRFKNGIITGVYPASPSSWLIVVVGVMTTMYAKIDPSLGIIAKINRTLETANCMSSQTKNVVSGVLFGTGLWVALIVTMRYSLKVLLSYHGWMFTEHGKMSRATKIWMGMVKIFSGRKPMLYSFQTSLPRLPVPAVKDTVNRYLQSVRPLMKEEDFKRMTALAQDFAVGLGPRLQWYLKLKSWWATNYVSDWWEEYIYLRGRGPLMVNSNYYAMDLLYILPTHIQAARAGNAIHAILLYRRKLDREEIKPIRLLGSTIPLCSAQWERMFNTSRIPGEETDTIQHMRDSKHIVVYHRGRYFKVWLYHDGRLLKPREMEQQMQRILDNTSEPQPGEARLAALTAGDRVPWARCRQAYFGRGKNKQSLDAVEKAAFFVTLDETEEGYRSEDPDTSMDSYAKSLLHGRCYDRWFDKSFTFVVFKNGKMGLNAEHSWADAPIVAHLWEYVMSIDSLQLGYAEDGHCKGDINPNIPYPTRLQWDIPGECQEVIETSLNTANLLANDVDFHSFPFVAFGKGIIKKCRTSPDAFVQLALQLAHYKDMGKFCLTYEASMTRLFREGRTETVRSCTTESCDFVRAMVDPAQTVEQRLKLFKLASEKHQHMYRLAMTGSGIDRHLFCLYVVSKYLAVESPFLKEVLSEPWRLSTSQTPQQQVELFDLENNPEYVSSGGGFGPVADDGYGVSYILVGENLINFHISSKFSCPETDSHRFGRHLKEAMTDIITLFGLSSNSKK
# [5] = molecular target: T5, Carnitine O-palmitoyltransferase 1, liver isoform (Rattus norvegicus, UniProt P32198); experiment: as §2
# T5 sequence (P32198 whole entry): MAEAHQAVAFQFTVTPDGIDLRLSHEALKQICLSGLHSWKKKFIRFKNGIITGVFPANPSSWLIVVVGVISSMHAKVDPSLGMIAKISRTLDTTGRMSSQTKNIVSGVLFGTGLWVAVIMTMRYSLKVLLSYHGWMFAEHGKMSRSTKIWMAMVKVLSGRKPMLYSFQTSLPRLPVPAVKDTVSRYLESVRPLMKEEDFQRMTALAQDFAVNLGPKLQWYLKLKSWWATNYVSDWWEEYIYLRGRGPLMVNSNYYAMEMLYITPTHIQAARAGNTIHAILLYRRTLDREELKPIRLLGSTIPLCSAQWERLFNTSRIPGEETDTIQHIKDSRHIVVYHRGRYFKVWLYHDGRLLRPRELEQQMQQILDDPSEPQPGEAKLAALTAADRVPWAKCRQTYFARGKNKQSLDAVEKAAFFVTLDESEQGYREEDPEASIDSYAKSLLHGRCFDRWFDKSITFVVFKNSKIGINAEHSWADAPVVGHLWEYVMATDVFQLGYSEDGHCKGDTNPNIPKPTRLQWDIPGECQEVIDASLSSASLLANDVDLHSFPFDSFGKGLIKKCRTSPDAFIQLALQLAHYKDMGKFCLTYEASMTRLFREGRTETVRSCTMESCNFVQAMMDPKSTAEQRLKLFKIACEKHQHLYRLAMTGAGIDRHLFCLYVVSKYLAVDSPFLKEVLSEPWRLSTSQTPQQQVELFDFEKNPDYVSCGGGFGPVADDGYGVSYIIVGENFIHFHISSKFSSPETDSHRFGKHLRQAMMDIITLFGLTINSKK
# [6] = SUPPLEMENTARY: Lyophilisation Solubility Assay (LYSA); type: physicochemical; conditions: read-out: Kinetic_solubility
# [7] = SUPPLEMENTARY: Lipophilicity (log D) Determination by high-throughput shake-flask; type: physicochemical; conditions: octanol/water
# [8] = SUPPLEMENTARY: PAMPA permeability assay; type: physicochemical; conditions: read-out: Permeability
IC50 [1],IC50 [2],IC50 [3],IC50 [4],IC50 [5],solubility kinetic [6],logD [7],Papp [8],Compound
> 100000 nM,12100 nM,18300 nM,96.4 nM,663 nM,10 µg/mL,2.79,5.55 ×10⁻⁶ cm/s,NC(=O)c1cn2ccc(-c3noc([C@H]4CCCCN4C(=O)COc4ccccc4)n3)cc2n1
3830 nM,2460 nM,3350 nM,90.2 nM,65.1 nM,16 µg/mL,2.67,1.89 ×10⁻⁶ cm/s,O=C(Nc1ccc(C(=O)O)c(Cl)c1)c1ccc2c(c1)N(S(=O)(=O)c1cc(Cl)cc(Cl)c1)CC2
43400 nM,> 100000 nM,> 100000 nM,201 nM,282 nM,63 µg/mL,2.75,2.93 ×10⁻⁶ cm/s,CC(=O)Nc1cccc(-c2nc([C@H]3CCCCN3C(=O)COc3ccccc3)n(C)n2)c1
> 100000 nM,> 100000 nM,> 100000 nM,278 nM,> 10000 nM,< 1 µg/mL,> 3,0.3 ×10⁻⁶ cm/s,COc1ccc(Cl)cc1CN1C(=O)OC(C)(C)c2ccc(C(=O)Nc3nccs3)cc21
61800 nM,23500 nM,56900 nM,96.8 nM,150 nM,54 µg/mL,2.16,1.92 ×10⁻⁶ cm/s,O=C1CN(c2cccc(-c3n[nH]c([C@H]4CCCCN4C(=O)COc4ccccc4)n3)c2)C(=O)N1
> 100000 nM,13900 nM,61500 nM,87.4 nM,683 nM,53 µg/mL,2.71,1.64 ×10⁻⁶ cm/s,O=C(COc1ccccc1)N1CCCC[C@@H]1c1nc(-c2ccc3[nH]ncc3c2)n[nH]1
> 100000 nM,> 100000 nM,> 100000 nM,154 nM,205 nM,2 µg/mL,3.51,1.09 ×10⁻⁶ cm/s,O=C1COc2cc(C#C[C@H]3CCCCN3C(=O)COc3ccccc3)ccc2N1
> 100000 nM,> 100000 nM,> 100000 nM,164 nM,190 nM,1 µg/mL,3.56,0.61 ×10⁻⁶ cm/s,N#Cc1ccc(C#C[C@H]2CCCCN2C(=O)COc2ccccc2)cc1
26500 nM,2290 nM,3280 nM,16.7 nM,9.7 nM,1 µg/mL,2.99,0.6 ×10⁻⁶ cm/s,O=C(O)c1ccc(NC(=O)c2ccc3ccn(S(=O)(=O)c4cccc(Cl)c4)c3c2)cc1
> 100000 nM,39700 nM,37700 nM,34.2 nM,255 nM,52 µg/mL,2.66,5.08 ×10⁻⁶ cm/s,NC(=O)c1ccc(-c2noc([C@H]3CCCCN3C(=O)COc3ccccc3)n2)cc1
> 100000 nM,40500 nM,> 100000 nM,79.3 nM,250 nM,83 µg/mL,2.68,5.6 ×10⁻⁶ cm/s,Cn1cnc(Br)c1-c1noc([C@H]2CCCCN2C(=O)COc2ccccc2)n1
> 100000 nM,> 100000 nM,> 100000 nM,110 nM,90.8 nM,45 µg/mL,2.04,5.17 ×10⁻⁶ cm/s,NS(=O)(=O)c1ccc(-c2noc(C3C4CC4CN3C(=O)COc3ccccc3)n2)cc1 (configuration not stated)
> 100000 nM,489 nM,1410 nM,63.6 nM,41.6 nM,81 µg/mL,2.58,11.5 ×10⁻⁶ cm/s,O=C([C@H]1CCCCN1C(=O)COc1ccccc1)N1Cc2ccc(O[C@@H]3CCOC3)cc2C1
8100 nM,> 100000 nM,> 100000 nM,84.7 nM,99.9 nM,> 526 µg/mL,1.15,0.23 ×10⁻⁶ cm/s,COc1ccc(Cl)cc1S(=O)(=O)N1CCc2ccc(C(=O)Nc3ccn(CC(=O)O)n3)cc21
